Measurements published in paper PMC9913351, “Computational Approach to Drug Penetration across the Blood-Brain and Blood-Milk Barrier Using Chromatographic Descriptors” (Cells, 2023).

Assays:
[1] = molecular target: T1, bovine serum albumin BSA (Bos taurus, UniProt P02769); experiment: RP TLC on silanized RP-2 plates impregnated with bovine serum albumin; type: in vitro ADME; details: for RP: Rf value from RP plate impregnated with 2 mg/mL BSA solution, mobile phase pH 7.4; for RP/C: Rf from BSA-modified RP-2 plate / Rf from clear one (control)
T1 construct: purchased Sigma Aldrich
T1 sequence (P02769 25-607): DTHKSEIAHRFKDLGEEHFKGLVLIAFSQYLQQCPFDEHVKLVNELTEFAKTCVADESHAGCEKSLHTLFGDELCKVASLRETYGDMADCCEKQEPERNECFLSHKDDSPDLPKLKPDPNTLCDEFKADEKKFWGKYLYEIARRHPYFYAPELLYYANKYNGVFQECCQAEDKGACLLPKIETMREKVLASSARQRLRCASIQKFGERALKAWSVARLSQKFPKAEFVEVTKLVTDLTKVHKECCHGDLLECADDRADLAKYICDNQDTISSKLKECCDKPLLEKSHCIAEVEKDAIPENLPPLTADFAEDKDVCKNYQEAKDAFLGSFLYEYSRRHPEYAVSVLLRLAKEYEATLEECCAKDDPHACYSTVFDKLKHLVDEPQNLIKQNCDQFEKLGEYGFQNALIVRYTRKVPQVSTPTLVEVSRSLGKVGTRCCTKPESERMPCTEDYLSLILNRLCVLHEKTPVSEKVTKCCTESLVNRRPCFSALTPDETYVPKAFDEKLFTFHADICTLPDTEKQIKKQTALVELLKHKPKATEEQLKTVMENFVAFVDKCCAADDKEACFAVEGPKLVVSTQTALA

[2] = RP TLC on unimpregnated RP-2 control plate; type: physicochemical; details: Rf value from unimpregnated RP plate (control); mobile phase pH 7.4
[3] = molecular target: T2, human serum albumin HSA (Homo sapiens, UniProt P02768); experiment: HPLC on immobilized human serum albumin column (HPLC-HSA); type: in vitro ADME; details: for log kHSA: logarithm of retention factor, mobile phase pH 7.4; for kHSA: retention factor, acetate buffer pH 7.4/acetonitrile/methanol 85:10:5
T2 construct: 4 × 10 mm
T2 sequence (P02768 25-609): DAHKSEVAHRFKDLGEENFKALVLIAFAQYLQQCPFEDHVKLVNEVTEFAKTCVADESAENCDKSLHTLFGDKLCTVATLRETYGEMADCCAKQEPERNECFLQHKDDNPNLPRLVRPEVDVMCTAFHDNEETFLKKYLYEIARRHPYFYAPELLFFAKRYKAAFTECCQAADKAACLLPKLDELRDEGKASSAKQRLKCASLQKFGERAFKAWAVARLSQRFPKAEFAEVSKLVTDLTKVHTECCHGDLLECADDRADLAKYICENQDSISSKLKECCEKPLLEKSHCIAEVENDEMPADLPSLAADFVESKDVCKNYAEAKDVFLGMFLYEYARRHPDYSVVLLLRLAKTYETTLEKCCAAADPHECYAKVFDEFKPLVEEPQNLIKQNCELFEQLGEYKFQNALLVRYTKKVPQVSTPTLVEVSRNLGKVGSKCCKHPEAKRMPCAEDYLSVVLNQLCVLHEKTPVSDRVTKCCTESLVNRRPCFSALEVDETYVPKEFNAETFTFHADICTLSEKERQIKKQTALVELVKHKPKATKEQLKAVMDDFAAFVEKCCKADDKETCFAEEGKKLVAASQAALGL

[4] = molecular target: T1, bovine serum albumin BSA; experiment: NP TLC on silica gel plates impregnated with bovine serum albumin; type: in vitro ADME; details: for NP/C: Rf from BSA-modified NP plate / Rf from clear one (control)
[5] = NP TLC on unimpregnated control plate; type: physicochemical; details: Rf value from unimpregnated NP plate (control); mobile phase pH 7.4
[6] = design: method as in earlier work; details: code describing the acid-base properties; source Chembl; cited from earlier work
[7] = HPLC on immobilized artificial membrane column (HPLC-IAM); type: physicochemical; details: for log kIAM: logarithm of retention factor, mobile phase pH 7.4; for kIAM: retention factor, phosphate buffer pH 7.4/acetonitrile 80:20
[8] = ratio of drug concentration in milk and plasma; cited from earlier work
[9] = Rf value from NP plate impregnated with 2 mg/mL BSA solution, mobile phase pH 7.4
Throughout, for a/b/n code: key: (-1) - acids; (0) - neutrals; (1) - bases.

Molecule | RP [1] | CRP [2] | log kHSA [3] | kHSA [3] | NP/C [4] | NP [4, 9] | RP/C [1] | CNP [5] | a/b/n code [6] | log kIAM [7] | kIAM [7] | NP ([4]; pH 7.4) | M/P ratio [8]
CC(=O)Nc1nnc(S(N)(=O)=O)s1 [acetazolamid] | 0.96 | 0.97 | -0.13 | 0.74 | – | – | – | – | – | – | – | – | –
CN(C)CCC=C1c2ccccc2CCc2ccccc21 [amitriptyline] | 0.63 | 0.67 | 0.77 | 5.87 | 0.97 | 0.31 | 0.94 | 0.32 | 1 | – | – | – | –
CCCCN1CCCCC1C(=O)Nc1c(C)cccc1C (stereo not shown) [bupivacaine] | 0.75 | 0.74 | 0.07 | 1.18 | 1.00 | 0.67 | 1.01 | 0.67 | 0 | – | – | – | –
CCN(CC)CCCC(C)Nc1ccnc2cc(Cl)ccc12 (stereo not shown) [chloroquine] | – | – | – | – | – | – | – | – | – | 0.49 | – | – | –
CN(C)CCCC1(c2ccc(F)cc2)OCc2cc(C#N)ccc21 (stereo not shown) [citalopram] | – | – | – | – | – | – | – | – | – | 0.50 | 3.14 | – | –
CN(C)CCCN1c2ccccc2CCc2ccc(Cl)cc21 [clomipramine] | – | – | – | – | – | – | – | – | – | – | 3.05 | – | –
CN(C)CCC=C1c2ccccc2COc2ccccc21 [doxepin] | 0.54 | – | 0.63 | 4.25 | 1.03 | 0.31 | 0.93 | 0.30 | 1 | 0.45 | 2.81 | – | –
CNCC[C@H](Oc1cccc2ccccc12)c1cccs1 [duloxetine] | – | – | 0.91 | 8.16 | – | – | – | – | – | 0.45 | 2.84 | – | –
CN1CCC[C@@H]1Cc1c[nH]c2ccc(CCS(=O)(=O)c3ccccc3)cc12 [eletriptan] | – | – | 0.58 | 3.78 | – | – | – | – | 1 | 0.55 | 3.57 | – | –
CC[C@@H](CO)NCCN[C@@H](CC)CO [ethambutol] | 0.95 | 0.97 | 0.24 | 1.73 | 1.11 | 0.21 | 0.98 | 0.19 | 1 | 0.34 | 2.18 | – | –
COCCCC/C(=N\OCCN)c1ccc(C(F)(F)F)cc1 [fluvoxamine] | – | – | – | – | – | – | – | 0.34 | – | – | – | – | –
NCC1(CC(=O)O)CCCCC1 [gabapentin] | – | – | -0.84 | 0.15 | – | – | – | – | – | 0.23 | 1.70 | – | –
NS(=O)(=O)c1cc2c(cc1Cl)NCNS2(=O)=O [hydrochlorotiazide] | – | – | – | – | – | – | – | – | – | 0.30 | 2.01 | – | –
CCC(C)n1ncn(-c2ccc(N3CCN(c4ccc(OCC5COC(Cn6cncn6)(c6ccc(Cl)cc6Cl)O5)cc4)CC3)cc2)c1=O (stereo not shown) [itraconazole] | 0.84 | 0.86 | 0.98 | 9.65 | 1.01 | 0.97 | 0.98 | 0.96 | 0 | 0.79 | 6.15 | – | –
O=C(c1ccccc1)c1ccc2n1CCC2C(=O)O (stereo not shown) [ketorolac] | 0.96 | 0.96 | 0.98 | 9.65 | 0.99 | 0.91 | 1.00 | 0.92 | -1 | 0.38 | 2.39 | – | –
CC[C@@H](C(N)=O)N1CCCC1=O [levetiracetam] | 0.92 | 0.92 | -1.16 | 0.07 | 1.00 | 0.92 | 1.00 | 0.92 | 0 | 0.21 | 1.62 | – | –
CCC[C@@H]1C[C@@H](C(=O)N[C@@H]([C@H]2O[C@H](SC)[C@H](O)[C@@H](O)[C@H]2O)[C@@H](C)O)N(C)C1 [lincomycin] | – | – | -0.08 | 0.82 | 1.00 | 0.91 | – | 0.91 | 1 | 0.59 | 3.89 | – | –

Molecule | RP [1] | CRP [2] | log kHSA [3] | kHSA [3] | NP/C [4] | NP [4, 9] | RP/C [1] | CNP [5] | a/b/n code [6] | log kIAM [7] | kIAM [7] | NP ([4]; pH 7.4) | M/P ratio [8]
Nc1ccc(O)c(C(=O)O)c1 [mesalazine] | 0.97 | 0.99 | -0.73 | 0.18 | – | – | 0.98 | – | -1 | 0.11 | 1.28 | – | –
Nc1cc(N2CCCCC2)nc(N)[n+]1[O-] [minoxidil] | – | – | – | – | – | – | – | – | – | 0.29 | 1.96 | – | –
CCOC(=O)C1=C(C)NC(C)=C(C(=O)OC)C1c1cccc([N+](=O)[O-])c1 (stereo not shown) [nitrendipine] | 0.86 | 0.86 | 0.55 | 3.55 | 1.00 | 0.97 | 1.00 | 0.97 | 0 | 0.47 | 2.98 | – | –
CC1COc2c(N3CCN(C)CC3)c(F)cc3c(=O)c(C(=O)O)cn1c23 (stereo not shown) [ofloxacin] | – | – | – | – | – | – | – | 0.24 | – | 0.49 | 3.07 | 0.23 | –
NC(=O)N1c2ccccc2CC(=O)c2ccccc21 [oxcarbamazepine] | 0.91 | 0.91 | -0.40 | 0.40 | – | 0.90 | – | 0.91 | – | 0.35 | 2.26 | – | –
CC(C)C[C@H](CN)CC(=O)O [pregabalin] | – | – | -0.87 | 0.14 | – | – | – | – | – | 0.22 | 1.65 | – | –
CCC1(c2ccccc2)C(=O)NCNC1=O [primidone] | 0.97 | 0.93 | -0.66 | 0.22 | 1.03 | 0.93 | 1.04 | 0.90 | 0 | 0.31 | 2.02 | – | –
CCCc1cc(=O)[nH]c(=S)[nH]1 [propylthiouracil] | – | – | – | – | – | – | – | – | – | 0.18 | 1.51 | – | –
C=C[C@H]1C[N@@]2CC[C@H]1C[C@H]2[C@H](O)c1ccnc2ccc(OC)cc12 [quinine] | – | – | – | – | – | – | – | – | – | 0.49 | 3.06 | – | –
CO[C@H]1/C=C/O[C@@]2(C)Oc3c(C)c(O)c4c(O)c(c(/C=N/N5CCN(C)CC5)c(O)c4c3C2=O)NC(=O)/C(C)=C\C=C\[C@H](C)[C@H](O)[C@@H](C)[C@@H](O)[C@@H](C)[C@H](OC(C)=O)[C@@H]1C [rifampicin] | 0.94 | 0.95 | -1.53 | 0.03 | – | 0.77 | – | 0.73 | – | 0.92 | 8.37 | – | –
CC(N)C12CC3CC(CC(C3)C1)C2 (stereo not shown) [rimantadine] | 0.95 | 0.95 | -0.80 | 0.16 | 1.00 | 0.92 | 1.00 | 0.92 | 1 | 0.28 | 1.91 | – | –
CN[C@H]1CC[C@@H](c2ccc(Cl)c(Cl)c2)c2ccccc21 [sertraline] | – | – | – | – | – | – | – | – | – | – | – | – | above 1
CC(C)(C)NC[C@H](O)COc1nsnc1N1CCOCC1 [timolol] | 0.97 | 0.97 | – | 0.13 | – | 0.32 | – | 0.34 | – | – | 2.88 | – | –
CCS(=O)(=O)CCn1c([N+](=O)[O-])cnc1C [tinidazole] | – | – | -0.92 | 0.12 | – | 0.88 | – | 0.89 | – | 0.30 | 2.00 | – | –
COc1cc(Cc2cnc(N)nc2N)cc(OC)c1OC [trimethoprim] | – | – | – | – | – | 0.59 | – | 0.57 | – | – | – | – | –
CC(=O)CC(c1ccccc1)c1c(O)c2ccccc2oc1=O (stereo not shown) [warfarin] | – | – | – | – | – | – | – | – | – | 0.44 | 2.76 | – | –
gentamycin | – | – | – | – | – | – | – | 0.96 | 1 | 0.63 | 4.25 | – | –
